Measured values taken from patent US7842806B2, “Pyridopyrimidone derivatives, preparation thereof, therapeutic use thereof” (sanofi-aventis, priority 2006, dated 2010).
Where two headings read alike, the source gives them in different places.

Assays:
K562 cells = experiment: MTS cell proliferation and viability test, K562 leukemia line; assay type: cell-based, human; details: incubating for 72 hours, read-out: IC50 (concentration which results in a 50% loss of cell proliferation and viability)
Procedure: […]
(§1) The cell proliferation and viability were determined in a test using 3-(4,5-dimethylthiazol-2-yl)-5-(3-carboxymethoxyphenyl)-2-(4-sulfophenyl)-2H-tetrazolium (MTS) according to Fujishita T. et al., Oncology, 2003, 64 (4), 399-406. In this test, the mitochondrial ability of the living cells to convert MTS to a colored compound is measured after incubating for 72 hours a compound of formula (I) according to the invention. […]

MDA-MB231 cells = experiment: MTS cell proliferation and viability test, MDA-MB231 breast cancer line; assay type: cell-based, human; details: incubating for 72 hours, read-out: IC50 (concentration which results in a 50% loss of cell proliferation and viability)
Procedure: […]
as §1

| IC50 (K562 cells; Homo sapiens) | IC50 (K562 cells) | IC50 (MDA-MB231 cells) | Structure (SMILES) |
| --- | --- | --- | --- |
| 3 nM |  |  | Cn1c(=O)c(-c2c(Cl)cccc2Cl)cc2cnc(Nc3ccc4c(c3)OC(CN)O4)nc21 (racemic) [Example 1, (R/S)-2-[[2-(aminomethyl)-1,3-benzodioxol-5-yl]amino]-6-(2,6-dichlorophenyl)-8-methyl-8H-pyrido[2,3-d]pyrimidin-7-one] |
|  | 20.5 nM | 183 nM | CNC(=O)C1COc2ccc(Nc3ncc4cc(-c5c(Cl)cccc5Cl)c(=O)n(C)c4n3)cc2O1 (racemic) [Example 8, (R/S)-N-methylamide of 7-[6-(2,6-dichlorophenyl)-8-methyl-7-oxo-7,8-dihydropyrido[2,3-d]pyrimidin-2-ylamino]-2,3-dihydrobenzo[1,4]dioxin-2-carboxylic acid] |
|  |  | 10 nM | Cn1c(=O)c(-c2c(Cl)cccc2Cl)cc2cnc(Nc3ccc4c(c3)COC4)nc21 [Example 2, 6-(2,6-dichlorophenyl)-2-[(1,3-dihydro-5-iso-benzofuranyl)amino]-8-methyl-8H-pyrido[2,3-d]pyrimidin-7-one] |
